According to ChEMBL document CHEMBL1159305, “Vidalenolone, a novel phenolic metabolite from the tropical red alga Vidalia sp” (J Nat Prod, 2002):
Activity calls are given as the source filed them.

Experiments:
[1] = biological target: Growth factor receptor-bound protein 2 (Homo sapiens) (UniProt P62993); assay: Inhibition of GST-tagged human recombinant full length Grb2 SH2 domain expressed in Escherichia coli […] binding to biotinylated phosphotyrosine-containing peptide by ELISA
[2] = biological target: Adapter molecule crk (Homo sapiens) (UniProt P46108); assay: Inhibition of GST-tagged human recombinant full length Crk SH2 domain expressed in Escherichia coli […] binding to biotinylated phosphotyrosine-containing peptide by ELISA
[3] = biological target: Tyrosine-protein kinase ABL1 (Homo sapiens) (UniProt P00519); assay: Inhibition of GST-tagged human recombinant full length Abl SH2 domain expressed in Escherichia coli […] binding to biotinylated phosphotyrosine-containing peptide by ELISA
[4] = biological target: Tyrosine-protein kinase Fyn (Homo sapiens) (UniProt P06241); assay: Inhibition of GST-tagged human recombinant full length Fyn SH2 domain expressed in Escherichia coli […] binding to biotinylated phosphotyrosine-containing peptide by ELISA

Measured: Activity

Sequence of Tyrosine-protein kinase Fyn (Homo sapiens) (P06241 2-537 limits assumed): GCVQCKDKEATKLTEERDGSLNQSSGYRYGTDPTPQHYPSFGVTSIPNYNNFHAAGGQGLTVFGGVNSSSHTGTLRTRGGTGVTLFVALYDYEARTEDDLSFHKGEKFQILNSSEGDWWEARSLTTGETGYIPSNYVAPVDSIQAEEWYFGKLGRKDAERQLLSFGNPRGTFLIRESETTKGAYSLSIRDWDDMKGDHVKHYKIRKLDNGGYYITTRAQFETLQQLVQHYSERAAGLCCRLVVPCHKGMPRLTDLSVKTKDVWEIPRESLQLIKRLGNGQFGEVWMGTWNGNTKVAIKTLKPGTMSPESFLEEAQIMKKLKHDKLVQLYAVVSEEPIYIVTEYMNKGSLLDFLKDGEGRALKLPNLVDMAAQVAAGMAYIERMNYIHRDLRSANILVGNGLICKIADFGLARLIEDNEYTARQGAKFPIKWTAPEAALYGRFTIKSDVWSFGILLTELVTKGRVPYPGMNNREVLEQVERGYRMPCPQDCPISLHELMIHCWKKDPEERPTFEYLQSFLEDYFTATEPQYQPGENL
Sequence of Growth factor receptor-bound protein 2 (Homo sapiens) (P62993 whole entry, looked up, the tested form may be a part): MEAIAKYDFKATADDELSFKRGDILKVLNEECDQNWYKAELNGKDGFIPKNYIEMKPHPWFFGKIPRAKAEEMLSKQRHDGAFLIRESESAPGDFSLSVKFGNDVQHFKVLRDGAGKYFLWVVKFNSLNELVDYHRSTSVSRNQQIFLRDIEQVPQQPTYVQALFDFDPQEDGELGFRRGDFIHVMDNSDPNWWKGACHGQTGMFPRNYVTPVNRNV
Sequence of Adapter molecule crk (Homo sapiens) (P46108 whole entry, the tested form may be a part): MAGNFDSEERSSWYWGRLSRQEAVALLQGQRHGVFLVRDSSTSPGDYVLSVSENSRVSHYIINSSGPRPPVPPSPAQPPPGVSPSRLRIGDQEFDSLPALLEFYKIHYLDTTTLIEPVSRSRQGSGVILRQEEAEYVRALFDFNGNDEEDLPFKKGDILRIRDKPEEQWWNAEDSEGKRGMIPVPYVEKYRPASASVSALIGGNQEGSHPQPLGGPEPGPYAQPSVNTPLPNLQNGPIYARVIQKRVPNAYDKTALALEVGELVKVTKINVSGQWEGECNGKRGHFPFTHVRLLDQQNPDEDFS
Sequence of Tyrosine-protein kinase ABL1 (Homo sapiens) (P00519 whole entry, the tested form may be a part): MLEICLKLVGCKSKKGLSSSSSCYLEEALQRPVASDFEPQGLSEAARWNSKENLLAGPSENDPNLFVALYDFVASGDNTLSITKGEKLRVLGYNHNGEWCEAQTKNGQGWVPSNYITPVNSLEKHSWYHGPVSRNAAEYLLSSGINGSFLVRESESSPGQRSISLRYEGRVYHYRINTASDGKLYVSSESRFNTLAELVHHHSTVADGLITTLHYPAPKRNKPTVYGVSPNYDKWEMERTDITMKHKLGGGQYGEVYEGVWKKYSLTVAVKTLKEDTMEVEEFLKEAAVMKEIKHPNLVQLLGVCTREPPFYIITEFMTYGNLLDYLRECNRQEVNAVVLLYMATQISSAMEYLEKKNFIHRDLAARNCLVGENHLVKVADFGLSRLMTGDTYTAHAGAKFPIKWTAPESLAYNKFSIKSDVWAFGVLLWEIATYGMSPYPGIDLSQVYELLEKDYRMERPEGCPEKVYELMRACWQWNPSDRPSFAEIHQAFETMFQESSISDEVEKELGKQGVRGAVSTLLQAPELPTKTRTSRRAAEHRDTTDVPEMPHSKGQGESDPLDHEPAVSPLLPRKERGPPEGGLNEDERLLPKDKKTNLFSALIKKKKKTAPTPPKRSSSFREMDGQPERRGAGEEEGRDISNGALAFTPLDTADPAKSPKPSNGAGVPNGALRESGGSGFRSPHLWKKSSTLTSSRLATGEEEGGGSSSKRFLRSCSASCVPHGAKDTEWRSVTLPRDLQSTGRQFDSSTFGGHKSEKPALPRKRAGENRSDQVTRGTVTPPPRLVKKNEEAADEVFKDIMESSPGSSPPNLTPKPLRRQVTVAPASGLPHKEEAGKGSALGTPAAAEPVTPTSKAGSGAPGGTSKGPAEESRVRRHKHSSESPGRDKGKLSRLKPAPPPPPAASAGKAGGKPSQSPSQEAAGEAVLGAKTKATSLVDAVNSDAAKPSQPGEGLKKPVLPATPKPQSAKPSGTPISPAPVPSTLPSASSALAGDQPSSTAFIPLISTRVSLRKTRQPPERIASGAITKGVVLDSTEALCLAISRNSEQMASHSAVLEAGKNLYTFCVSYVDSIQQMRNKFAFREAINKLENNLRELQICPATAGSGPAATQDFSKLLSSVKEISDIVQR

CCOCc1cc(O)c(O)c(Br)c1Br
inactive: [1] | [2] | [3] | [4]

OCc1ccc(O)cc1
inactive: [1] | [2] | [3] | [4]

COC1(Cc2ccc(O)cc2)CC=C(O)C1=O (configuration not stated)
inactive: [1] | [2] | [3] | [4]
